What all share (format): cell-based
In assay [1] the test system is SW48 (wt) cells. Nature of the assay: Cell viability assay (CELLTITER-GLO), SW48 cells. The conditions noted are these: Homo sapiens, 72 h, 3 days incubation, 2.5% fetal bovine serum, read-out: Inhibition of Cancerous Cells IC50 (μM) SW48 (wt). As to the method: (§1) H358, H23, SW48, and AsPC-1 cells were cultured in RPMI 1640 media supplemented with 10% fetal bovine serum, streptomycin, and penicillin. Lovo and SW480 cells were cultured in DMEM media supplemented with 10% fetal bovine serum, streptomycin, and penicillin. The cell lines were plated in their respective medium supplemented with 2.5% fetal bovine serum, streptomycin, and penicillin. All cell lines were plated in white walled 96-well plates at 2,000 cells/well or 384-well plates at 500 cells/well, except Lovo, which were plated at 4,000 or 1,000 cells/well, respectively. The cells were incubated in DMSO (control) or a compound for 3 days at 37° C. under 5% C02. A CELLTITER-GLO® reagent (100 μL) was then added to each well. After a 10 min incubation with shaking, luminescence was measured using an ENVISION® multimode plate reader. IC50 values are summarized in Table 1 and percentages of inhibition are summarized in Table 2, where compound T1 is 2-(4-(2-methyl-3,5-diphenylpyrazolo[1,5-a]pyrimidin-7-yl)piperazin-1-yl)ethan-1-ol.
(In general: Cellular ATP, detected with luciferase, serves as a proxy for viable cell number.)

Assay [2] has as its system Lovo (G13D) cells. Nature of the assay: Cell viability assay (CELLTITER-GLO), Lovo cells. The conditions noted are these: Homo sapiens, 72 h, 3 days incubation, 2.5% fetal bovine serum, read-out: Inhibition of Cancerous Cells IC50 (μM) Lovo (G13D). On the procedure:
as §1

Assay [3] has as its system SW480 (G12V) cells. Nature of the assay: Cell viability assay (CELLTITER-GLO), SW480 cells. The conditions noted are these: Homo sapiens, 72 h, 3 days incubation, 2.5% fetal bovine serum, read-out: Inhibition of Cancerous Cells IC50 (μM) SW480 (G12V). On the procedure:
as §1

Assay [4] has as its system H358 (G12C) cells. Nature of the assay: Cell viability assay (CELLTITER-GLO), H358 cells. The conditions noted are these: Homo sapiens, NCI-H358, 72 h, 3 days incubation, 2.5% fetal bovine serum, read-out: Inhibition of Cancerous Cells IC50 (μM) H358 (G12C). On the procedure: as §1
The test system of assay [5] is AsPC-1 (G12D) cells. Kind of assay: Cell viability assay (CELLTITER-GLO), AsPC-1 cells. As to conditions: Homo sapiens, ASPC1, 72 h, 3 days incubation, 2.5% fetal bovine serum, read-out: Inhibition of Cancerous Cells IC50 (μM) AsPC-1 (G12D). As to the method:
as §1

Each structure is given as a SMILES string.

A word on the IC50: it is the concentration at which inhibition is half-maximal. In the case of `Cc1nn2c(N3CCN(CCO)CC3)cc(-c3cccc(CCCN4CCN(C(=O)CNc5ccc(C6CCC(=O)NC6=O)cc5)CC4)c3)nc2c1-c1ccccc1` (stereo not drawn) [Compound B1, 3-(4-((2-(4-(3-(3-(7-(4-(2-Hydroxyethyl)piperazin-1-yl)-2-methyl-3-phenyl-pyrazolo[1,5-a]pyrimidin-5-yl)phenyl)propyl)piperazin-1-yl)-2-oxoethyl)amino)phenyl)-piperidine-2,6-dione], the half-maximal inhibitory concentration (IC50) in assay [1] came out at 1.1 µM; in assay [2], 0.74 µM; in assay [3], 1.2 µM; in assay [4], 0.94 µM.
Take `Cc1nn2c(N3CCN(CCO)CC3)cc(-c3cccc(CCCCCN4CCN(C(=O)CNc5ccc(C6CCC(=O)NC6=O)cc5)CC4)c3)nc2c1-c1ccccc1` (stereo not drawn) [Compound B2, 3-(4-((2-(4-(5-(3-(7-(4-(2-hydroxyethyl)piperazin-1-yl)-2-methyl-3-phenylpyrazolo[1,5-a]pyrimidin-5-yl)phenyl)pentyl)piperazin-1-yl)-2-oxoethyl)amino)phenyl)piperidine-2,6-dione]: the IC50 in assay [1] was 0.49 µM; in assay [2], 0.4 µM; in assay [3], 0.39 µM; in assay [4] it was 0.71 µM.
With `Cc1nn2c(N3CCN(CCO)CC3)cc(-c3cccc(CCCN4CCN(C(=O)CNc5cccc(C6CCC(=O)NC6=O)c5)CC4)c3)nc2c1-c1ccccc1` (stereo not drawn) [Compound B4, 3-(3-((2-(4-(3-(3-(7-(4-(2-Hydroxyethyl)piperazin-1-yl)-2-methyl-3-phenyl-pyrazolo[1,5-a]pyrimidin-5-yl)phenyl)propyl)piperazin-1-yl)-2-oxoethyl)amino)phenyl)-piperidine-2,6-dione], the concentration for half-maximal inhibition (IC50) worked out at 1.4 µM in assay [1], 1.1 µM in assay [2], 1.3 µM in assay [3] and 1.1 µM in assay [4].
For `Cc1nn2c(N3CCN(CCO)CC3)cc(-c3ccccc3)nc2c1-c1cccc(CCCCCN2CCN(C(=O)COc3ccc(N4CCC(=O)NC4=O)cc3)CC2)c1` [Compound C7, 1-(4-(2-(4-(5-(3-(7-(4-(2-hydroxyethyl)piperazin-1-yl)-2-methyl-5-phenyl-pyrazolo[1,5-a]pyrimidin-3-yl)phenyl)pentyl)piperazin-1-yl)-2-oxoethoxy)phenyl)dihydro-pyrimidine-2,4(1H,3H)-dione], the half-maximal inhibitory concentration (IC50) in assay [1] turned out to be 0.7 µM; in assay [2], 0.73 µM; in assay [3], 0.45 µM; in assay [4], 1.1 µM; in assay [5], 0.91 µM.
For the compound `Cc1nn2c(N3CCN(CCO)CC3)cc(-c3ccccc3)nc2c1-c1cccc(CCCCCCCN2CCN(C(=O)COc3ccc(N4CCC(=O)NC4=O)cc3)CC2)c1` [Compound C8, 1-(4-(2-(4-(7-(3-(7-(4-(2-Hydroxyethyl)piperazin-1-yl)-2-methyl-5-phenyl-pyrazolo[1,5-a]pyrimidin-3-yl)phenyl)heptyl)piperazin-1-yl)-2-oxoethoxy)phenyl)dihydro-pyrimidine-2,4(1H,3H)-dione], the IC50 in assay [1] was 0.66 µM; in assay [2], 0.71 µM; in assay [3], 0.42 µM; in assay [4], 1.1 µM; in assay [5], 1.1 µM.
As to `Cc1nn2c(N3CCN(CCO)CC3)cc(-c3ccccc3)nc2c1-c1cccc(CCCCCCCCCN2CCN(C(=O)COc3ccc(N4CCC(=O)NC4=O)cc3)CC2)c1` [Compound C9, 1-(4-(2-(4-(9-(3-(7-(4-(2-hydroxyethyl)piperazin-1-yl)-2-methyl-5-phenyl-pyrazolo[1,5-a]pyrimidin-3-yl)phenyl)nonyl)piperazin-1-yl)-2-oxoethoxy)phenyl)dihydro-pyrimidine-2,4(1H,3H)-dione], the IC50 amounted to 0.48 µM in assay [1]; 0.47 µM in assay [2]; 0.42 µM in assay [3]; 1.1 µM in assay [4]; 0.96 µM in assay [5].
With `Cc1nn2c(N3CCN(CCO)CC3)cc(-c3ccccc3)nc2c1-c1cccc(CCCCCCCN2CCN(C(=O)COc3cccc(N4CCC(=O)NC4=O)c3)CC2)c1` [Compound C11, 1-(3-(2-(4-(7-(3-(7-(4-(2-Hydroxyethyl)piperazin-1-yl)-2-methyl-5-phenyl-pyrazolo[1,5-a]pyrindin-3-yl)phenyl)heptyl)piperazin-1-yl)-2-oxoethoxy)phenyl)dihydro-pyrimidine-2,4(1H,3H)-dione], the IC50 in assay [1] is 1.1 µM; in assay [2] it was 0.89 µM; in assay [3], 0.53 µM; in assay [4], 1.2 µM; in assay [5], 1.2 µM.
On to `Cc1nn2c(N3CCN(CCO)CC3)cc(-c3ccccc3)nc2c1-c1cccc(CCCCCCCCCN2CCN(C(=O)COc3cccc(N4CCC(=O)NC4=O)c3)CC2)c1` [Compound C12, 1-(3-(2-(4-(9-(3-(7-(4-(2-hydroxyethyl)piperazin-1-yl)-2-methyl-5-phenyl-pyrazolo[1,5-a]pyrimidin-3-yl)phenyl)nonyl)piperazin-1-yl)-2-oxoethoxy)phenyl)dihydro-pyrimidine-2,4(1H,3H)-dione], for which the concentration for half-maximal inhibition (IC50) in assay [1] amounted to 0.73 µM; in assay [2] it was 0.63 µM; in assay [3] it was 0.45 µM; in assay [4], 1.4 µM; in assay [5], 1 µM.
In the case of `Cc1nn2c(N3CCN(CCO)CC3)cc(-c3cccc(CCCCCN4CCN(C(=O)CNc5ccc6c(C7CCC(=O)NC7=O)nn(C)c6c5)CC4)c3)nc2c1-c1ccccc1` (stereo not drawn) [Compound D2, 3-(6-((2-(4-(5-(3-(7-(4-(2-hydroxyethyl)piperazin-1-yl)-2-methyl-3-phenylpyrazolo[1,5-a]pyrimidin-5-yl)phenyl)pentyl)piperazin-1-yl)-2-oxoethyl)amino)-1-methyl-1H-indazol-3-yl)piperidine-2,6-dione], the IC50 in assay [1] amounted to 0.52 µM; in assay [2], 0.32 µM; in assay [3], 0.45 µM; in assay [4], 0.82 µM.
As to `Cc1nn2c(N3CCN(CCO)CC3)cc(-c3cccc(CCCN4CCN(C(=O)CNc5cccc6c(C7CCC(=O)NC7=O)nn(C)c56)CC4)c3)nc2c1-c1ccccc1` (stereo not drawn) [Compound D4, 3-(7-((2-(4-(3-(3-(7-(4-(2-Hydroxyethyl)piperazin-1-yl)-2-methyl-3-phenyl-pyrazolo[1,5-a]pyrimidin-5-yl)phenyl)propyl)piperazin-1-yl)-2-oxoethyl)amino)-1-methyl-1H-indazol-3-yl)piperidine-2,6-dione], the half-inhibitory concentration (IC50) is 0.94 µM in assay [1], 0.52 µM in assay [2], 0.84 µM in assay [3] and 0.75 µM in assay [4].
Take `Cc1nn2c(N3CCN(CCO)CC3)cc(-c3ccccc3)nc2c1-c1cccc(CCCN2CCN(C(=O)CNc3ccc4c(C5CCC(=O)NC5=O)nn(C)c4c3)CC2)c1` (stereo not drawn) [Compound D7, 3-(6-((2-(4-(3-(3-(7-(4-(2-Hydroxyethyl)piperazin-1-yl)-2-methyl-5-phenyl-pyrazolo[1,5-a]pyrimidin-3-yl)phenyl)propyl)piperazin-1-yl)-2-oxoethyl)amino)-1-methyl-1H-indazol-3-yl)piperidine-2,6-dione]: the IC50 in assay [1] stood at 1.2 µM; in assay [2], 1.3 µM; in assay [3] it was 0.86 µM; in assay [4], 3.3 µM; in assay [5], 1.3 µM.
For the compound `Cc1nn2c(N3CCN(CCO)CC3)cc(-c3ccccc3)nc2c1-c1cccc(CCCCCN2CCN(C(=O)CNc3ccc4c(C5CCC(=O)NC5=O)nn(C)c4c3)CC2)c1` (stereo not drawn) [Compound D8, 3-(6-((2-(4-(5-(3-(7-(4-(2-Hydroxyethyl)piperazin-1-yl)-2-methyl-5-phenyl-pyrazolo[1,5-a]pyrimidin-3-yl)phenyl)pentyl)piperazin-1-yl)-2-oxoethyl)amino)-1-methyl-1H-indazol-3-yl)piperidine-2,6-dione], the 50% inhibitory concentration (IC50) in assay [1] came to 0.72 µM; in assay [2], 0.63 µM; in assay [3], 0.4 µM; in assay [4], 1.2 µM; in assay [5] it was 1.3 µM.
On to `Cc1nn2c(N3CCN(CCO)CC3)cc(-c3ccccc3)nc2c1-c1cccc(CCCCCCCN2CCN(C(=O)CNc3ccc4c(C5CCC(=O)NC5=O)nn(C)c4c3)CC2)c1` (stereo not drawn) [Compound D9, 3-(6-((2-(4-(7-(3-(7-(4-(2-Hydroxyethyl)piperazin-1-yl)-2-methyl-5-phenyl-pyrazolo[1,5-a]pyrimidin-3-yl)phenyl)heptyl)piperazin-1-yl)-2-oxoethyl)amino)-1-methyl-1H-indazol-3-yl)piperidine-2,6-dione], for which the IC50 in assay [1] is 0.72 µM; in assay [2], 0.51 µM; in assay [3], 0.46 µM; in assay [4], 1 µM; in assay [5], 1.3 µM.

For the origin of these results see patent publication US20240190883A1, “KRAS PROTEIN DEGRADERS, PHARMACEUTICAL COMPOSITIONS THEREOF, AND THEIR THERAPEUTIC APPLICATIONS” (BioTheryX, Inc., priority 2021, published 2024).
